Test results taken from patent US6365582B1, “S-substitute 11β-benzaldoxime-estra-4, 9-diene-carbonic acid thiolesters, method for the production thereof and pharmaceutical preparations containing these compounds” (Jenapharm GmbH & Co. KG, priority 1998, dated 2002).

Experiments:
[1] = system: early pregnancy in the rat; experiment: Inhibition of early pregnancy in the rat (early abortive action); format: in vivo; conditions: s.c., day 5-7 of pregnancy
Description: Inhibition of early pregnancy in the rat Female rats weighing 180-200 g were mated in the proestrus stage. On detection of sperm in the vaginal region on the next day, this is set as day 1 (d=1) of the pregnancy. The rats are treated with test substance or vehicle using 0.2 ml of benzoyl benzoate/castor oil (1+4 v/v) subcutaneously from day 5 to day 7 (d5-d7); autopsy is carried oust painlessly on day d9. The uterus horns was [sic] dissected and examined for intact or damaged nidation sites.

glucocorticoid receptor = molecular target: T1, glucocorticoid receptor (Rattus norvegicus, UniProt P06536); experiment: Receptor binding affinity, glucocorticoid receptor (competitive binding, thymus cytosol); conditions: Dexamethasone = 100%; thymus cytosol of adrenalectomized rat; tracer 3H-dexamethasone
T1 construct: receptors in the cytosol of animal target organs; from tissue; host or cells: thymus cytosol of the adrenalectomized rat
T1 sequence (P06536 1-795): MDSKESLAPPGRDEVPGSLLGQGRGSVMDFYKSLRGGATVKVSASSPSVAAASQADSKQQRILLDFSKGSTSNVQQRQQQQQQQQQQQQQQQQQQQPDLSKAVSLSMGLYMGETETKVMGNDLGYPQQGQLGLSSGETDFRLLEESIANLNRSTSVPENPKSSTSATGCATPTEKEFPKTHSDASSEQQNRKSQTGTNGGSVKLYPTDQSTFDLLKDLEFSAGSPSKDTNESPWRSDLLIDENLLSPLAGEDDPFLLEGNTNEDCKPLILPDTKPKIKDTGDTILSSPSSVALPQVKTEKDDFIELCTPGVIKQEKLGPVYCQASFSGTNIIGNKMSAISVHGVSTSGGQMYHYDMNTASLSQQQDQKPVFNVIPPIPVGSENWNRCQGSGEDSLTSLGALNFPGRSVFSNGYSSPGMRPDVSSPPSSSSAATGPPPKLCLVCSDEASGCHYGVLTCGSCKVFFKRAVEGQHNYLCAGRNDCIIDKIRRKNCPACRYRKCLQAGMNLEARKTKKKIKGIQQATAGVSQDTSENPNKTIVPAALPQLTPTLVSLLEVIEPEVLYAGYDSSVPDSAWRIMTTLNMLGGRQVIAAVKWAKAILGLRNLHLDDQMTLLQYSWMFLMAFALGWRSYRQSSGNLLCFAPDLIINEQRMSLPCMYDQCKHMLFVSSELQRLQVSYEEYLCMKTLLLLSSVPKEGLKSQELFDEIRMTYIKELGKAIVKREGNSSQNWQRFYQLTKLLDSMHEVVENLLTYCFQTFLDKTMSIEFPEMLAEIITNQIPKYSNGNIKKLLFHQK
Description: (§1) Measurement of the receptor binding affinity
(§2) The receptor binding affinity was determined by competitive binding of a specifically binding ^3H-labeled hormone (tracer) and the compound to be tested to receptors in the cytosol of animal target organs. Receptor saturation and reaction equilibrium were aimed at here. The following incubation conditions were chosen:
Glucocorticoid receptor: Thymus cytosol of the adrenalectomized rat. Thymi stored at −30° C.
Tracer: ^3H-dexamethasone, 20 nM.
Reference substance: dexamethasone.
(§3) After an incubation of receptor fraction, tracer and competitor for 18 h at 0-4° C., the bound and free steroid were separated by mixing in active carbon/dextran (1%/0.1%), centrifuging off and measuring the receptor-bound ^3H activity in the supernatant.

guinea pig in cycle = experiment: Antiluteolysis test/ovulation inhibition test in the guinea pig in cycle; format: in vivo
Description: Antiluteolysis test/ovulation inhibition test in the guinea pig in cycle: This test is based on the fact that progesterone at the end of the cycle stimulates uterine prostaglandin secretion. In the guinea pig, the inhibition of this function leads to a persistence of the corpora lutea (antiluteolysis). […] This test thus allows the therapy-relevant typing of progesterone antagonists as ? pure” or ? agonistic” substances. Guinea pigs are treated with the test substance on day 10 to day 17 of the cycle. The progesterone concentrations in the serum are determined on day 10 before substance treatment and on the following days until autopsy ([…]., Beier, […]., Crundel, M. et al. in Current Concepts in Fertility Regulation and Reproduction, (eds). Puri, C. P. and Van Look, P. F. H. (1994) 303-328).

progesterone receptor = molecular target: T2, progesterone receptor (Oryctolagus cuniculus, UniProt P06186); experiment: Receptor binding affinity, progesterone receptor (competitive binding, uterus cytosol); conditions: Progesterone = 100%; uterus cytosol of estradiol-primed rabbit; tracer 3H-ORG 2058
T2 construct: receptors in the cytosol of animal target organs; from tissue; host or cells: uterus cytosol of the estradiol-primed rabbit
T2 sequence (P06186 1-930): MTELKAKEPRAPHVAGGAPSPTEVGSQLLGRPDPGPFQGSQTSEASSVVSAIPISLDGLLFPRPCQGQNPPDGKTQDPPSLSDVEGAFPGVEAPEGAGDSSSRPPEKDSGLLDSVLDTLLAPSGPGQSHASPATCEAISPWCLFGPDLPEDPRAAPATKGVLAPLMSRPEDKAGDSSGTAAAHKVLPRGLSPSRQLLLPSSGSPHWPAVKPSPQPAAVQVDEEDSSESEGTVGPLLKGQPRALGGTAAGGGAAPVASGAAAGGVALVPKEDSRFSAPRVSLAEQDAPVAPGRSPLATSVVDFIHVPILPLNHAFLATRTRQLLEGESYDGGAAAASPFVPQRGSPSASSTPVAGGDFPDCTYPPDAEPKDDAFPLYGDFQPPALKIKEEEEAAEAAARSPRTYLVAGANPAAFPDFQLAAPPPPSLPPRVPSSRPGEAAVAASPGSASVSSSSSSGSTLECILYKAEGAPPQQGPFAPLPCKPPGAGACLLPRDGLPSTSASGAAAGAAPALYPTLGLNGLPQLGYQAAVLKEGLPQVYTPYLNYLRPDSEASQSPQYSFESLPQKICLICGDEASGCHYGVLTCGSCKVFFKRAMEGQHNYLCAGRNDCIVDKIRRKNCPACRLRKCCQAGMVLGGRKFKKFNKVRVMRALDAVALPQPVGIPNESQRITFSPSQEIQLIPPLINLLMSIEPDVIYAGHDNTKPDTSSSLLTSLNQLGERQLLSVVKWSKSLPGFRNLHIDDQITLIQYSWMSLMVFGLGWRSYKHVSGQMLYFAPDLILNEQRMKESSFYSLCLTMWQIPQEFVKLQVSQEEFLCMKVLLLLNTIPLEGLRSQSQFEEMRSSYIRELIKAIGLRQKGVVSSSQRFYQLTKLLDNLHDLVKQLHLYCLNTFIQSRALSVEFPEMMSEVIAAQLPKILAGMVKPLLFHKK
Description: as §1, §2
Progesterone receptor Uterus cytosol of the estradiol-primed rabbit, stored at −30° C.
Buffer for homogenization and incubation: TED buffer 20 mM tris/HCl, pH [sic]=7.4; 1 mM ethylenediamine tetracetate, 2 mM dithiothreitol) containing 250 mM sucrose.
Reference substance: progesterone.
as §3

SMILES | Complete inhibition of pregnancy % ([1]; 0.3 mg/(animal × day)) [%] | Complete inhibition of pregnancy % ([1]; 1 mg/(animal × day)) [%] | Complete inhibition of pregnancy % ([1]; 3 mg/(animal × day)) [%] | Relative molar binding affinity RBA (%) to the glucocorticoid receptor (glucocorticoid receptor) [%] | Inhibition of luteolysis / antiluteolytic activity (in words) (guinea pig in cycle; guinea pig in cycle) | Relative molar binding affinity RBA (%) to the progesterone receptor (progesterone receptor) [%] | Prostaglandin / PGFM levels in the blood (in words) (guinea pig in cycle; guinea pig) | Effect on the vaginal epithelium (in words) (guinea pig in cycle; guinea pig in cycle)
CC#C[C@]1(O)CC[C@H]2[C@@H]3CCC4=CC(=O)CCC4=C3[C@@H](c3ccc(N(C)C)cc3)C[C@@]21C [RU 486, mifepristone, reference compound] | 0 | 20 | 100 | 685 | slightly antiluteolytically active | – | – | –
CN(C)c1ccc([C@H]2C[C@]3(C)[C@@H](CC[C@]3(O)CCCO)[C@@H]3CCC4=CC(=O)CCC4=C32)cc1 [ZK 98299, onapristone, reference compound] | – | – | – | 39 | – | 22 | very low prostaglandin levels in the blood | induces proliferation and keratinization of the vaginal epithelium
